# Source: PMC9767854, “Discovery and mechanism studies of a novel ATG4B inhibitor Ebselen by drug repurposing and its anti-colorectal cancer effects in mice” (Cell & Bioscience, 2022)
# Legend:
# HCT116 = experiment: Autophagy flux by LC3B-II western blot in HCT116; format: cell-based; conditions: Ebselen 5 and 10 μM with CQ 40 μM
# Description: Fig. 5 Ebselen suppresses autophagy flux via inhibition of ATG4B. A, B HeLa cells were treated with Torin 1 (2 μM) or CQ (40 μM) and detected by western blot. C, D SW620 cells were transduced with sgCon and sgATG4B lentiviruses, respectively. Then cells were treated with CQ (40 μM) and detected by western blot. E, F HCT116 were treated with Ebselen (5 and 10 μM) or CQ (40 μM) and subjected to western blot. G, H SW620 were treated with Ebselen (10 μM) or CQ (40 μM) and western blotting was carried out to detect the protein levels. I, J Immunofluorescence analysis of endogenous LC3B in HCT116 treated with Ebselen (10 μM) or CQ (40 μM). Dots numbers for LC3B were derived from counting at least 20 cells and 5 fields from three independent replicated experiments. Bar = 10 μm. K HCT116 cells were treated with 2 μM Torin 1 in the presence or absence of 10 μM Ebselen for 12 h, then the level ratio of long-lived proteins was measured by flow cytometry
# Immunoblotting assay was performed reportedly previously. Commonly, cells were lysed in ice-cold RIPA lysis buffer (Beyotime, P0013B) supplemented with Pierce™ protease inhibitor tablet (ThermoFisher Scientific, A32965). […]
# ATG4B [1] = target: T1, ATG4B (Homo sapiens, UniProt Q9Y4P1); experiment: In vitro thermal shift assay, ATG4B WT; format: binding; conditions: ATG4B 100 nM, Ebselen 1 μM, compared with DMSO
# T1 construct: 6xHis; made in house; host or cells: E. coli BL21(DE3)
# T1 sequence (Q9Y4P1 1-393): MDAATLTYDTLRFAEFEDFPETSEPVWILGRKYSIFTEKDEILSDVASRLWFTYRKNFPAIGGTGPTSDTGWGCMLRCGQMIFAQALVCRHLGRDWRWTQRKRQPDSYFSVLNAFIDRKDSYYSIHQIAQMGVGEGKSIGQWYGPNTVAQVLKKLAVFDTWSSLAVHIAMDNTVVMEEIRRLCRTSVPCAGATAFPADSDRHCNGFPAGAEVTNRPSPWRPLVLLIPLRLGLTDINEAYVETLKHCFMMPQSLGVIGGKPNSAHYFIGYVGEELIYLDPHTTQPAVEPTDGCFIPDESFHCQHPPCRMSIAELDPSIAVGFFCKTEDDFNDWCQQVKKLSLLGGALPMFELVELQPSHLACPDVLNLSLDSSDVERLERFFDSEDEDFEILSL
# Description: For in vitro thermal shift assay, recombinant protein ATG4B or C74S mutant (100 nM) was incubated with Ebselen (1 μM) (DMSO as control) in the PCR tubes. The PCR instrument program was set at 25 °C for 10 min, 37 °C to 70 °C for 30 min and followed by cooling tubes for 5 min at room temperature. Then centrifuged at 12,000 rpm for 10 min at 4 °C, soluble fractions were separated from precipitates to be analyzed by SDS-PAGE and immunoblotting.
# ATG4B [2] = target: T1, ATG4B; experiment: Gel-based assay (SDS-PAGE and CBB staining of FRET-GATE-16 cleavage); format: biochemical; conditions: 1 μM
# Description: Taking ATG4B as the target, we used the high-throughput FRET-based assay to screen the FDA-approved drugs library containing 1600 compounds (Fig. 1A). […] (Additional file 1: Figure S1C). Then twenty-four candidate compounds (marked in red) were noted through an initial screening at 10 μM (Fig. 1B). To further validate their inhibitory effect, a more rigorous and authentic approach as gel-based assay was carried out (Fig. 1C). The brake of the cleavage reaction of the substrate FRET-GATE-16 was very intuitively reflective of the compounds’ inhibitory effect on the ATG4B enzymatic activity. […] This was also verified in the FRET- and gel-based full concentration-response plot of compound 669 (Fig. 1D, E).
# Fig. 1 Screening of ATG4B inhibitors based on the approved drugs library by FRET assay. A Illustration of the FRET-based high-throughput screening platform for ATG4B inhibitors. B Scatter plot of inhibition rate of approved library for ATG4B based on FRET assay. Candidate compounds were marked in red. […] C The inhibitory effect of twenty-four candidate compounds (10 μM) were detected by SDS-PAGE and Coomassie brilliant blue (CBB) staining according to the cleavage of substrates. […] D The dose-dependent inhibition of compound 669 (Ebselen) were determined by SDS-PAGE.
# WT and ATG4B KO HCT116 = experiment: Apoptosis detection by cleaved PARP western blot; format: cell-based; conditions: low or high concentrations of Ebselen; STS 2 μM; 6 h
# Caspase 2 = target: T2, Caspase 2 (Homo sapiens, UniProt P42575); experiment: Caspase activity assay kit, CASP2; format: biochemical; conditions: 10 μM
# T2 construct: Beyotime (assay kit only) C1107
# Description: The enzyme activity of Caspase 1, Caspase 2, Caspase 3, Caspase 4, Caspase 6, Caspase 8 and Caspase 9 were determined via the activity assay kits (C1101, C1107, C1115, C1121, C1135, C1151 and C1157) from Beyotime (Shanghai, China). Then the experimental procedures were performed according to the manufacturer’s protocols.
# HCT116 cells = experiment: Cell counting and colony formation assays; format: cell-based
# Description: For colony formation, WT HCT116 and ATG4B KO HCT116 cells were seeded in 6-well plates at 800 cells per well and cultured for 9–12 days, respectively. Concurrently, medium containing indicated compounds were replaced every 3 days, before the cells were fixed in 4% paraformaldehyde for 20 min and washed with PBS three times. Then colonies were stained with crystal violet (Beyotime, C0121) for 1 h and excess dyes were washed with PBS. Eventually, colonies more than 1 mm were counted in at least three independent experiments.
# (§1) WT/ATG4B KO HCT116, WT/ATG4B KO SW620 and WT/ATG4B KO RKO cells were seeded in 96-well plate at 1000–1500 cells per well for cell viability assay, and seed in 6-well plate at 1 × 10^5 cells per well for cell number counting. After 12 h, the indicated drugs were added to the medium and cultured for another 96 h. Total viable cell numbers were counted by a cell counter (BioRAD), and cell viability was determined by cell-count-8 assay kit (CCK-8, Bimake, B34304) according to the manufacturer’s protocol.
# ATG4B KO HCT116 = experiment: Cell viability by CCK-8 assay, ATG4B KO HCT116; format: cell-based
# Description: as §1
# T2 sequence (P42575 170-325 limits assumed, species assumed): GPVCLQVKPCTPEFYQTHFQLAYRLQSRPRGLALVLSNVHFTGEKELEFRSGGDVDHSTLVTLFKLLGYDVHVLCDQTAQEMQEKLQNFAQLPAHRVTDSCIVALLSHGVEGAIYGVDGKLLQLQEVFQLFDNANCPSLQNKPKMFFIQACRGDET
# T2 sequence (P42575 348-452 limits assumed, species assumed): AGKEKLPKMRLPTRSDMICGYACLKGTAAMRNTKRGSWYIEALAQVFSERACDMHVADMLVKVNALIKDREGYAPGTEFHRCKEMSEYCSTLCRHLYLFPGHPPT
structure (smiles),measurement,setting,value
O=c1c2ccccc2[se]n1-c1ccccc1 [Ebselen],autophagic flux (LC3B-II),HCT116,inhibition of autophagic flux
same,thermal stability of wild type ATG4B,ATG4B [1],strikingly improved
same,inhibition of ATG4B in gel,ATG4B [2],complete inhibition
same,apoptosis (cleaved PARP),WT and ATG4B KO HCT116,did not show any increase in apoptosis
same,effect on CASP2 activity,Caspase 2,certain inhibition
same,cell proliferation and colony formation,HCT116 cells,significantly inhibit
same,effect on viability of ATG4B deficient cells,ATG4B KO HCT116; Fig. 6F,almost no effect
same,IC50,"ATG4B KO HCT116; Homo sapiens, HCT-116, CCK-8, 96 h",28.1 µM
